This is an account of results in patent US8716281B2, “Pyrimidine compounds that inhibit anaplastic lymphoma kinase” (Amgen Inc., priority 2010, dated 2014).

pIC50: −log10 of the molar value.

Broadly, the pIC50 is the negative decadic logarithm of the IC50, by convention in mol/L.

In the first assay the target is T1, wild-type human ALK cytoplasmic domain (amino acids 1058-1620) (Homo sapiens, UniProt Q9UM73).
T1 construct: The cytoplasmic domain (amino acids 1058-1620) of wild-type human ALK; GST (N); made in house; host or cells: SF9 insect cells
T1 sequence (Q9UM73 1058-1620): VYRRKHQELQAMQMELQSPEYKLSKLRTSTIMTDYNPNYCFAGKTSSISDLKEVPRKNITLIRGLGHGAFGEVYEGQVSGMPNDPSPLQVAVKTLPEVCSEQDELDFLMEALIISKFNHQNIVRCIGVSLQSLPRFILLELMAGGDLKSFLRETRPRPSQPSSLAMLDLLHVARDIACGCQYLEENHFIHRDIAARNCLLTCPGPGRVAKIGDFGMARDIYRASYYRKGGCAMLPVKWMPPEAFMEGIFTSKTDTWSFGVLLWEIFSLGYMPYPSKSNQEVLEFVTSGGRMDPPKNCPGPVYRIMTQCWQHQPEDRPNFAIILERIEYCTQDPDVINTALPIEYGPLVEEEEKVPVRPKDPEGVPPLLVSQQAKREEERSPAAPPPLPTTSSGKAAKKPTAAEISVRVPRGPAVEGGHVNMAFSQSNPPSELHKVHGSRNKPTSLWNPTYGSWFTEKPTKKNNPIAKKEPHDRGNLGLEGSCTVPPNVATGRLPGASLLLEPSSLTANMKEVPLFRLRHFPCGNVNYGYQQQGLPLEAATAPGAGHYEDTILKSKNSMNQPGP
Briefly: ALK Inhibition in Enzyme Assay (Lance TR-FRET). The class given is biochemical.
Conditions: not given
As to the method:
ALK Inhibition in Enzyme Assay
Kinase activity of the purified protein was assessed using a Lance® TR-FRET assay. […] The reaction was allowed to proceed for 90 minutes at room temperature and was then terminated with 20 mM EDTA in 50 mM Tris (pH 7.5), 100 mM NaCl, 0.05% BSA, and 0.1% Tween-20. Phosphorylation of the peptide substrate was detected using the Lance® detection reagents streptavidin-allophycocyanin (SA-APC) and Eu-W1024 anti-phosphotyrosine antibody (PT66) from Perkin Elmer Life Sciences (Waltham, Mass.). The plates were read on a RUBY star plate reader (BMG LABTECH, Cary, N.C.) with an excitation wavelength of 320 nm.
As for `COc1cc(Nc2nccc(N3CCC[C@H](C(=O)NCc4cccc(N5CCOCC5)c4)C3)n2)cc(OC)c1OC` [Example 85, (S)-N-(3-(4-morpholinyl)benzyl)-1-(2-((3,4,5-trimethoxyphenyl)amino)-4-pyrimidinyl)-3-piperidinecarboxamide], the pIC50 was above 7.30.

Staying with this assay, now noted: 2 nM enzyme, ATP at 40 μM (Km apparent), 90 minutes, mean of three replicates; read-out: ALK IC50.
As to `COc1cc(Nc2nccc(N3CCC[C@H](C(=O)NCc4cccc(OC(F)F)c4)C3)n2)cc(OC)c1OC` [Example 79, (S)-N-(3-(difluoromethoxy)benzyl)-1-(2-((3,4,5-trimethoxyphenyl)amino)-4-pyrimidinyl)-3-piperidinecarboxamide], the pIC50 was above 7.30.

With `COc1cc(Nc2nccc(N3CCC[C@H](C(=O)NCc4cc(C)cc(C)c4)C3)n2)cc(OC)c1OC` [Example 81, (S)-N-(3,5-dimethylbenzyl)-1-(2-((3,4,5-trimethoxyphenyl)amino)-4-pyrimidinyl)-3-piperidinecarboxamide], the pIC50 was 5.00 to 5.30.

Take `COc1cc(Nc2nccc(N3CCC[C@H](C(=O)NCc4ccc(C)c(C)c4)C3)n2)cc(OC)c1OC` [Example 83, (S)-N-(3,4-dimethylbenzyl)-1-(2-((3,4,5-trimethoxyphenyl)amino)-4-pyrimidinyl)-3-piperidinecarboxamide]: the pIC50 was 6.00 to 7.00.

Take `COc1cc(Nc2nccc(N3CCC[C@H](C(=O)NCc4cccc(NS(C)(=O)=O)c4)C3)n2)cc(OC)c1OC` [Example 84, (S)-N-(3-((methylsulfonyl)amino)benzyl)-1-(2-((3,4,5-trimethoxyphenyl)amino)-4-pyrimidinyl)-3-piperidinecarboxamide]: the pIC50 was 5.30 to 6.00.

On to `COc1cc(Nc2nccc(N3CCC[C@H](C(=O)NCc4ccc(C(F)(F)F)c(F)c4)C3)n2)cc(OC)c1OC` [Example 86, (S)-N-(3-fluoro-4-(tritluoromethyl)benzyl)-1-(2-((3,4,5-trimethoxyphenyl)amino)-4-pyrimidinyl)-3-piperidinecarboxamide], for which the pIC50 is 6.00 to 7.00.

With `COc1cc(Nc2nccc(N3CCC[C@H](C(=O)NCc4cccc(OC(C)C)c4)C3)n2)cc(OC)c1OC` [Example 87, (S)-N-(3-(1-methylethoxy)benzyl)-1-(2-((3,4,5-trimethoxyphenyl)amino)-4-pyrimidinyl)-3-piperidinecarboxamide], the pIC50 is 6.00 to 7.00.

For `COc1cc(Nc2nccc(N3CCC[C@H](C(=O)NCc4ccc(OC(C)C)cc4)C3)n2)cc(OC)c1OC` [Example 88, (S)-N-(4-(1-methylethoxy)benzyl)-1-(2-((3,4,5-trimethoxyphenyl)amino)-4-pyrimidinyl)-3-piperidinecarboxamide], the pIC50 was 7.00 to 7.30.

In the case of `COc1cc(Nc2nccc(N3CCC[C@H](C(=O)NCCc4cccc(C)c4)C3)n2)cc(OC)c1OC` [Example 89, (S)-N-(2-(3-methylphenyl)ethyl)-1-(2-((3,4,5-trimethoxyphenyl)amino)-4-pyrimidinyl)-3-piperidinecarboxamide], the pIC50 is 7.00 to 7.30.

In the case of `COc1cc(Nc2nccc(N3CCC[C@H](C(=O)NCCc4ccc(Oc5ccccc5)cc4)C3)n2)cc(OC)c1OC` [Example 90, (S)-N-(2-(4-phenoxyphenyl)ethyl)-1-(2-((3,4,5-trimethoxyphenyl)amino)-4-pyrimidinyl)-3-piperidinecarboxamide], the pIC50 is 6.00 to 7.00.

`COc1cc(Nc2nccc(N3CCC[C@H](C(=O)NCCc4ccc(C(F)(F)F)cc4)C3)n2)cc(OC)c1OC` [Example 91, (S)-N-(2-(4-(trifluoromethyl)phenyl)ethyl)-1-(2-((3,4,5-trimethoxyphenyl)amino)-4-pyrimidinyl)-3-piperidinecarboxamide]: the pIC50 is 7.00 to 7.30.

For `COc1cc(Nc2nccc(N3CCC[C@H](C(=O)NCCc4ccc(C)cc4)C3)n2)cc(OC)c1OC` [Example 92, (S)-N-(2-(4-methylphenyl)ethyl)-1-(2-((3,4,5-trimethoxyphenyl)amino)-4-pyrimidinyl)-3-piperidinecarboxamide], the pIC50 was 6.00 to 7.00.

For `COc1ccc(CCNC(=O)[C@H]2CCCN(c3ccnc(Nc4cc(OC)c(OC)c(OC)c4)n3)C2)cc1` [Example 93, (S)-N-(2-(4-methoxyphenyl)ethyl)-1-(2-((3,4,5-trimethoxyphenyl)amino)-4-pyrimidinyl)-3-piperidinecarboxamide], the pIC50 is 6.00 to 7.00.

With `COc1cc(Nc2nccc(N3CCC[C@H](C(=O)NCCc4cccc(Br)c4)C3)n2)cc(OC)c1OC` [Example 94, (S)-N-(2-(3-bromophenyl)ethyl)-1-(2-((3,4,5-trimethoxyphenyl)amino)-4-pyrimidinyl)-3-piperidinecarboxamide], the pIC50 was above 7.30.

As for `COc1cc(Nc2nccc(N3CCC[C@H](C(=O)NCCc4cccc(F)c4)C3)n2)cc(OC)c1OC` [Example 95, (S)-N-(2-(3-fluorophenyl)ethyl)-1-(2-((3,4,5-trimethoxyphenyl)amino)-4-pyrimidinyl)-3-piperidinecarboxamide], the pIC50 is 6.00 to 7.00.

Turning to `COc1cc(Nc2nccc(N3CCC[C@H](C(=O)NCCc4cccc(C(F)(F)F)c4)C3)n2)cc(OC)c1OC` [Example 96, (S)-N-(2-(3-(trifluoromethyl)phenyl)ethyl)-1-(2-((3,4,5-trimethoxyphenyl)amino)-4-pyrimidinyl)-3-piperidinecarboxamide], the pIC50 is above 7.30.

For `COc1cc(Nc2nccc(N3CCC[C@H](C(=O)NCCc4ccc(C)c(C)c4)C3)n2)cc(OC)c1OC` [Example 97, (S)-N-(2-(3,4-dimethylphenyl)ethyl)-1-(2-((3,4,5-trimethoxyphenyl)amino)-4-pyrimidinyl)-3-piperidinecarboxamide], the negative-log IC50 (pIC50) was 5.30 to 6.00.

`COc1cc(Nc2nccc(N3CCC[C@H](C(=O)NC[C@@H](C)c4ccccc4)C3)n2)cc(OC)c1OC` [Example 98, (S)-N-((S)-2-phenylpropyl)-1-(2-((3,4,5-trimethoxyphenyl)amino)-4-pyrimidinyl)-3-piperidinecarboxamide]: the pIC50 is 6.00 to 7.00.

With `COc1cc(Nc2nccc(N3CCC[C@H](C(=O)NCCc4ccccc4Cl)C3)n2)cc(OC)c1OC` [Example 99, (S)-N-(2-(2-chlorophenyl)ethyl)-1-(2-((3,4,5-trimethoxyphenyl)amino)-4-pyrimidinyl)-3-piperidinecarboxamide], the negative logarithm of the IC50 (pIC50) was 5.30 to 6.00.

With `COc1cc(Nc2nccc(N3CCC[C@H](C(=O)NCCc4ccc(F)cc4)C3)n2)cc(OC)c1OC` [Example 100, (S)-N-(2-(4-fluorophenyl)ethyl)-1-(2-((3,4,5-trimethoxyphenyl)amino)-4-pyrimidinyl)-3-piperidinecarboxamide], the pIC50 was 6.00 to 7.00.

As for `COc1cc(Nc2nccc(N3CCC[C@H](C(=O)NC[C@H](C)c4ccccc4)C3)n2)cc(OC)c1OC` [Example 101, (S)-N-((R)-2-phenylpropyl)-1-(2-((3,4,5-trimethoxyphenyl)amino)-4-pyrimidinyl)-3-piperidinecarboxamide], the pIC50 was 5.30 to 6.00.

With `COc1cc(Nc2nccc(N3CCC[C@H](C(=O)NCCc4ccccc4F)C3)n2)cc(OC)c1OC` [Example 102, (S)-N-(2-(2-fluorophenyl)ethyl)-1-(2-((3,4,5-trimethoxyphenyl)amino)-4-pyrimidinyl)-3-piperidinecarboxamide], the pIC50 was 6.00 to 7.00.

Turning to `COc1cc(Nc2nccc(N3CCC[C@H](C(=O)NCc4cccc(F)c4)C3)n2)cc(OC)c1OC` [Example 104, (S)-N-(3-fluorobenzyl)-1-(2-((3,4,5-trimethoxyphenyl)amino)-4-pyrimidinyl)-3-piperidinecarboxamide], the pIC50 is 6.00 to 7.00.

Take `COc1cc(Nc2nccc(N3CCC[C@H](C(=O)NCc4cccc(Oc5ccc(Cl)cc5)c4)C3)n2)cc(OC)c1OC` [Example 105, (S)-N-(3-(4-chlorophenoxy)benzyl)-1-(2-((3,4,5-trimethoxyphenyl)amino)-4-pyrimidinyl)-3-piperidinecarboxamide]: the pIC50 is 5.30 to 6.00.

Take `COc1cc(Nc2nccc(N3CCC[C@H](C(=O)NCc4cccc(-c5ccc(Cl)cc5)c4)C3)n2)cc(OC)c1OC` [Example 106, (S)-N-((4′-chloro-3-biphenylyl)methyl)-1-(2-((3,4,5-trimethoxyphenyl)amino)-4-pyrimidinyl)-3-piperidinecarboxamide]: the negative-log IC50 (pIC50) is above 7.30.

As for `COc1cc(Nc2nccc(N3CCC[C@H](C(=O)NCc4cccc(-c5ccc(F)cc5)c4)C3)n2)cc(OC)c1OC` [Example 108, (S)-N-((4′-fluoro-3-biphenylyl)methyl)-1-(2-((3,4,5-trimethoxyphenyl)amino)-4-pyrimidinyl)-3-piperidinecarboxamide], the pIC50 is above 7.30.

On to `CCOC(=O)C(C)Cc1cccc(CNC(=O)[C@H]2CCCN(c3ccnc(Nc4cc(OC)c(OC)c(OC)c4)n3)C2)c1` (stereo partly drawn) [Example 109, ethyl 2-methyl-3-(3-(((((S)-1-(2-((3,4,5-trimethoxyphenyl)amino)-4-pyrimidinyl)-3-piperidinyl)carbonyl)amino)methyl)phenyl)propanoate], for which the pIC50 was 6.00 to 7.00.

Turning to `COc1cc(Nc2nccc(N3CCC[C@H](C(=O)NCc4cccc(-n5cccc5)c4)C3)n2)cc(OC)c1OC` [Example 110, (S)-N-(3-(1H-pyrrol-1-yl)benzyl)-1-(2-((3,4,5-trimethoxyphenyl)amino)-4-pyrimidinyl)-3-piperidinecarboxamide], the pIC50 is above 7.30.

Turning to `COc1cc(Nc2nccc(N3CCC[C@H](C(=O)NCc4cccc(-n5cccn5)c4)C3)n2)cc(OC)c1OC` [Example 111, (S)-N-(3-(1H-pyrazol-1-yl)benzyl)-1-(2-((3,4,5-trimethoxyphenyl)amino)-4-pyrimidinyl)-3-piperidinecarboxamide], the negative-log IC50 (pIC50) is 6.00 to 7.00.
